Measured values as given in article PMC5750217 (Nature Communications, 2018).
Positions count from the first letter of the chain named.

How the values were obtained:
ASCT1 = target: T1, ASCT1 (Homo sapiens, UniProt P43007); test: Radiolabelled uptake in oocytes expressing ASCT1; assay type: cell-based; conditions: 10 µM radiolabelled substrate, 10 min, room temperature
T1 construct: expressed in transfected cells; host or cells: Xenopus laevis oocytes (cRNA injection)
T1 sequence (P43007 1-532): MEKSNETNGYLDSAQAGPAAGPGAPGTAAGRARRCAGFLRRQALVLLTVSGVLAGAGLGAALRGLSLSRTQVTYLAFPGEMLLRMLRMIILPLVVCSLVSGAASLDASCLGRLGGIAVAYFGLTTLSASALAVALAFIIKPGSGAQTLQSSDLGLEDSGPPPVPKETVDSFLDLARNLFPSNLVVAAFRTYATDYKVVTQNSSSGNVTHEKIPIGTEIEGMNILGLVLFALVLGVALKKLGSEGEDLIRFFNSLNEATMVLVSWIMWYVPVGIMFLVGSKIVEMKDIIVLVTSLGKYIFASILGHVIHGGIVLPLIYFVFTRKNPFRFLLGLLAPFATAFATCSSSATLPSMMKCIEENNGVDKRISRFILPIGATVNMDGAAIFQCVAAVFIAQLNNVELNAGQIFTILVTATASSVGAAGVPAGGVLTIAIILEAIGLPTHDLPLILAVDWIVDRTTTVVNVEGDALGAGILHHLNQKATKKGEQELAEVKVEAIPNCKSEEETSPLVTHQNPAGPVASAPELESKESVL
Method: Uptake of L-[^3H]amino acids (PerkinElmer Life Sciences) was measured in oocytes expressing wild-type and mutant ASCT1, and uninjected oocytes. Five oocytes were incubated in Cl^−-containing buffer with 10 µM L-[^3H]amino acids at room temperature. After 10 min, uptake was terminated by three rapid washes in ice-cold Cl^−-containing buffer followed by lysis in 50 mM NaOH and 1% SDS. L-[^3H]amino acids were measured by scintillation counting using a Trilux beta counter (PerkinElmer Life Sciences).
Supplementary Figure 6. GltPh‐R397C, ASCT1 and ASCT2 are functional cysteine transporters. (a) […]
7.5) containing 1 µM of valinomycin and the 10µM 35S‐cysteine. […]
All data represent the mean of triplicate
(1 picture or pasted object on this page, not shown here)

[1] = target: T2, A1-T458S/T459C (mutant ASCT1) (Homo sapiens, UniProt P43007, T458S/T459C); test: Two electrode voltage clamp, substrate-activated anion current in oocytes expressing A1-T458S/T459C; assay type: cell-based; conditions: for EC50: A1-T458S/T459C in oocytes, NO3−-containing buffer, current at +60 mV
T2 construct: expressed in transfected cells; host or cells: Xenopus laevis oocytes (cRNA injection)
T2 sequence (P43007 1-532 T458S/T459C): T1 sequence (P43007 1-532) with T458S, T459C
Method: All chemicals were obtained from Sigma unless otherwise stated. Stage V oocytes were harvested from female Xenopus laevis (frogs) which were obtained from Nasco (Fort Alkinson, USA). Frogs were anaesthetised with 6.5 mM tricaine neutralised with 7.14 mM sodium bicarbonate. After making an incision in the abdomen of the frog, ovarian sacs were removed and stored in OR-2 buffer (82.5 mM NaCl, 2 mM KCl, 1 mM MgCl2, 5 mM hemisodium HEPES, pH 7.5). This surgical procedure follows a protocol (#2016/970) approved by the University of Sydney Animal Ethics Committee under the Australian Code of Practice for the Care and Use of Animals for Scientific Purposes. To isolate oocytes, the ovarian sacs were cut into small sections before being digested by agitation with 2 mg per ml Collagenase A for 1–2 h. Following digestion, defoliculated oocytes were initially rinsed with OR-2, followed by frog Ringer’s solution (96 mM NaCl, 2 mM KCl, 1 mM MgCl2, 1.8 mM CaCl2, 5 mM hemisodium HEPES, pH 7.5). A total of 20 ng of transporter cRNA was injected into oocytes which were stored in frog Ringer’s solution supplemented with 0.1% gentamycin, 50 μg per ml tetracycline, 2.5 mM pyruvate and 0.5 mM theophylline at 16–18 °C.
After 2–4 days of microinjection, current recordings were made using the two electrode voltage clamp technique with a Geneclamp 500 amplifier (Axon Instruments, Foster City, CA) interfaced with a MacLab 2e chart recorder (ADI Instruments, Sydney, Australia) using the chart software, and a Digidata 1322A (Axon Instruments) controlled by an IBM-compatible computer using the pClamp software (version 10, Molecular Devices, Union City, CA). The current–voltage relationships for substrate elicited conductances were obtained by subjecting cells to 200 ms voltage pulses between −100 mV and + 60 mV in 10 mV steps. Current–voltage relationships were calculated by subtracting steady state current measurements in the absence of substrate from corresponding current measurements in the presence of substrate.
Recording solution for all experiments (except where otherwise stated) was normal frog Ringer’s solution (Cl^−-containing buffer) with complete NO3 ^− substitution for Cl^−. For Na^+ titrations, NMDG^+ was used as the substitute cation. The pH of recording solutions was adjusted using HNO3 and NaOH or KOH. Recordings were made with the bath grounded via a 3 M KCl/agar bridge connected to a 3 M KCl reservoir to minimise offset potentials. Cells were washed with Cl^−-containing buffer between substrate applications to ensure that NO3 loading of the cell was not significant. […]

Row | SMILES | Radiolabelled substrate uptake into oocytes (in words) (ASCT1) | EC50 [1] [µM] | GPNA % inhibition of L-serine activated current ([1]; A1-T458S/T459C, GPNA co-applied with EC50 of L-serine, 300 µM GPNA / 1 mM GPNA (Table 1 footnote)) [%] | IC50 ([1]; A1-T458S/T459C, co-applied with EC50 of L-serine, read-out: IC50 for inhibition of L-serine activated current) [µM]
1 | N[C@@H](CO)C(=O)O [L-serine] | observe L-[^3H]serine uptake | 45 ± 5 |  | 
2 | N[C@@H](CCC(=O)Nc1ccc([N+](=O)[O-])cc1)C(=O)O [GPNA, glutamyl-p-nitroanilide] |  |  | 41 ± 4 | 600 ± 200
3 | NC(=O)CC[C@H](N)C(=O)O [L-glutamine] | no glutamine transport is observed | 90 ± 10 |  | 
4 | N[C@@H](CS)C(=O)O [L-cysteine] | robust L-[^35S]cysteine uptake |  |  | 
